The target of test [1] is T1, Porcine tubulin (colchicine binding site) (Sus scrofa, UniProt P02554).
T1 construct: purchased Cytoskeleton, Inc. T240; host or cells: brain tissue (purified)
Nature of the test: Colchicine competitive binding assay (fluorescence). The settings on record: compound 50 µM, colchicine 10 μM, tubulin 20 μM.

A further test addresses T2, porcine tubulin (Sus scrofa, UniProt P02554).
T2 construct: purchased Cytoskeleton, Inc. BK011P
Nature of the test: Tubulin polymerization assay (fluorescent reporter). The test is classed as biochemical. Particulars: porcine tubulin 20 μM; for reduction in tubulin polymerization (AUC): compound 5 μM, relative to DMSO. As to the method: Tubulin polymerization was evaluated by monitoring the incorporation of a fluorescent reporter into MTs during polymerization. The tubulin polymerization assay kit (Cytoskeleton, Inc. BK011P; Denver, CO, USA) was used according to the manufacturer’s instructions. Briefly, the tubulin reaction mix was kept on ice until immediately prior to use.
(A,B) Representative tubulin polymerization plots and data quantification. […] (C) Immunofluorescence staining of β-tubulin in U87 glioblastoma cells. […] Images were captured using an Operetta confocal microscope at 40× magnification. Scale bar, 10 μm. […] Data was collected with a BD FACS Canto II Flow Cytometer and analyzed using the BD FACSDiva software. (E) The percentage of cells in G1, S, and G2/M phases from the histograms in (D). Data are plotted as mean ± SD from at least three independent experiments. Analysis between groups in (B) was performed using a one-way ANOVA with Tukey’s multiple comparisons test.

Test [2] has as its system U87 glioblastoma cells. The test can be described thus: alamarBlue cell viability assay, U87. The test is classed as cell-based. Particulars: Homo sapiens, 72 h, U87, 72 h, average absolute IC50. As to the method: (§1) Cells (100 µL/well) were seeded in 96-well tissue culture plates (Greiner Bio-One 650090; Kremsmünster, Austria). The plating density (cells/well) for each cell line was as follows: LN-18 (3000), U87 (4000), and HMC3 (5000). After overnight incubation, compounds were added to the cells (50 µL at 3× concentration, final 0.1% DMSO), and plates were incubated for 72 h. Cell viability was assessed by the addition of 25 µL of alamarBlue for a final concentration of 100 µM final concentration (Resazurin redox reagent, Sigma-Aldrich R7017; St. Louis, MO, USA). After a 4 h incubation, fluorescence was read on a CLARIOstar Plus plate reader (BMG Labtech, Ortenberg, Germany) at EX 570/EM 590 nm.
Background: Alamar Blue is a resazurin reagent that responds to reducing activity.

Test [3] has as its system LN-18 glioblastoma cells (TMZ-resistant). Nature of the test: alamarBlue cell viability assay, LN-18. The test is classed as cell-based. The settings on record: Homo sapiens, LN-18, 72 h, average absolute IC50. As to the method:
as §1

Test [4] has as its system U87 cells (microtubule network). The test can be described thus: Immunofluorescent staining of cellular β-tubulin. The test is classed as cell-based, human. Particulars: U87, compounds at their IC50 concentrations, 24 h. As to the method:
U87 cells (4000/well) were plated in black 96-well plates (Perkin Elmer 6055302; Waltham, MA, USA) and grown overnight. Cells were treated with compounds for 24 h, fixed with 4% paraformaldehyde for 20 min, and permeabilized with FoxP3 permeabilization buffer (eBioscience/Thermo Fisher Scientific 00-5523-00; Waltham, MA, USA) for 10 min at RT. Cells were incubated with an anti-TUBB3 (Tuj1) antibody (1:1000; […] Technologies 60052; Vancouver, BC, Canada) labeled with Hoechst 33342 dye (1:2000; Thermo Fisher Scientific H3570; Waltham, MA, USA). Images (40×) were taken with an automated high-content imaging microscope (Operetta, Perkin Elmer; Waltham, MA, USA).

The test system of test [5] is U87 glioblastoma cells. The test can be described thus: Cell cycle analysis (propidium iodide flow cytometry). The test is classed as cell-based, human. Particulars: 48 h. As to the method:
[…] Cells were washed in ice-cold PBS, resuspended in 1 mL of ice-cold 70% ethanol, and fixed overnight at −20 °C. Cells were centrifuged and resuspended in PBS containing RNAse A at a final concentration of 0.5 mg/mL (MilliporeSigma 10109142001; Burlington, MA, USA) and propidium iodide at a final concentration of 0.04 mg/mL (Sigma-Aldrich P4170, St. Louis, MO, USA) for 1 h at 37 °C. Nuclear staining was analyzed using a BD FACSCanto II flow cytometer (BD Biosciences; Franklin Lakes, NJ, USA) to determine cell cycle distribution. Cell cycle analysis was performed using the BD FACSDiva software v8.0.
(In general: Flow cytometry measures light scatter and fluorescence of single cells or particles in a stream.)

Bounds are passed on as bounds.

On to `COC(=O)Nc1nc2ccc(C(=O)c3cccs3)cc2[nH]1` [NOC, Nocodazole, reference compound], for which, in test [1], the “reduction of colchicine–tubulin fluorescence relative to control” value is recorded as 79%.
As for `CC(=O)O[C@H]1C(=O)[C@@]2(C)[C@H]([C@H](OC(=O)c3ccccc3)[C@]3(O)C[C@H](OC(=O)[C@H](O)[C@@H](NC(=O)c4ccccc4)c4ccccc4)C(C)=C1C3(C)C)[C@]1(OC(C)=O)CO[C@@H]1C[C@@H]2O` [PX, paclitaxel, reference compound], the “increase in tubulin polymerization (AUC)” value at porcine tubulin (paclitaxel 3 μM) is reported as 91%.
The term IC50 denotes the concentration that gives 50% inhibition. Low readings indicate inhibition by little substance, high ones a need for much substance. As to `CO[C@H]1CC[C@@H](C(=O)NC(=O)Nc2ccc(Oc3ncc(Cl)cn3)c(C)c2)CC1` [RGN3062], the IC50 with U87 glioblastoma cells [2] turned out to be 588 nM; in test [3], 73 nM. Besides, the “reduction in tubulin polymerization (AUC)” value at porcine tubulin is 36%. Besides, the “effect on tubulin organization / MT network morphology” value in test [4] was “substantial tubulin disruption”. The “cells arrested at G2/M” value in the test on U87 glioblastoma cells [5] (U87, 5 µM) is listed as 73%.
Take `CO[C@H]1CC[C@H](C(=O)NC(=O)Nc2ccc(Oc3ncc(Cl)cn3)c(C)c2)CC1` [RGN3096]: the values for the IC50 (with U87 glioblastoma cells [2]; in test [3]) were > 10000 nM and 2430 nM, respectively. Moreover, at porcine tubulin, the “reduction in tubulin polymerization (AUC)” value is “no difference relative to the DMSO control”. For the same compound, the “effect on tubulin organization / MT network morphology” value in test [4] is “no visible effect on tubulin and cell structure”. Besides, the “cells arrested at G2/M” value with U87 glioblastoma cells [5] (U87, 5 µM) stood at 11%.
As for `COc1cc2c(c(OC)c1OC)-c1ccc(OC)c(=O)cc1[C@@H](NC(C)=O)CC2` [colchicine, reference compound], the “effect on tubulin organization / MT network morphology” value in test [4] is on record as “varying levels of disruption of tubulin organization”. In the test on U87 glioblastoma cells [5] (U87, 20 nM), the “cells arrested at G2/M” value amounted to 64%.
